In patent US20260028354A1, “TETRAHYDRONAPHTHALENE DERIVATIVES AS ESTROGEN RECEPTOR DEGRADERS” (REGENT OF THE UNIVERSITY OF MICHIGAN, priority 2022, published 2026):

Assay: Western blot analysis for "B" compounds
Format: cell-based
Details: read-out: Traditional Western Degradation Potency (DC50)
Procedure, shortened: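 Target protein levels given as relative mean band intensity over GAPDH from scanned immunoblots. Lysates of treated cells in RIPA buffer, equalized by BCA, separated on 10% gels and transferred to PVDF.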

Compound	DC50 [nM]
O=C1CCC(N2C(=O)c3cc4c(cc3C2=O)CN(CC(=O)N2CCC(C(=O)N3CC(Oc5ccc([C@@H]6c7ccc(O)cc7CC[C@@H]6c6ccccc6)cc5)C3)CC2)C4)C(=O)N1 (stereo partly drawn) [Compound B120, 2-(2,6-dioxopiperidin-3-yl)-6-(2-(4-(3-(4-((1R,2S)-6-hydroxy-2-phenyl-1,2,3,4-tetrahydronaphthalen-1-yl)phenoxy)azetidine-1-carbonyl)piperidin-1-yl)-2-oxoethyl)-6,7-dihydropyrrolo[3,4-f]isoindole-1,3(2H,5H)-dione]	> 100
O=C1CCC(N2Cc3cc4c(cc3C2=O)CN(C(=O)C2CCC(N3CC(Oc5ccc([C@@H]6c7ccc(O)cc7CC[C@@H]6c6ccccc6)cc5)C3)CC2)C4)C(=O)N1 (stereo partly drawn) [Compound B106, 3-(6-((1R,4r)-4-(3-(4-((1R,2S)-6-hydroxy-2-phenyl-1,2,3,4-tetrahydronaphthalen-1-yl)phenoxy)azetidin-1-yl)cyclohexane-1-carbonyl)-1-oxo-3,5,6,7-tetrahydropyrrolo[3,4-f]isoindol-2(1H)-yl)piperidine-2,6-dione]	< 10
O=C1CCC(N2C(=O)c3cc4c(cc3C2=O)CN(C2CN(CC3CCN(c5ccc([C@@H]6c7ccc(O)cc7CC[C@@H]6c6ccccc6)cc5)CC3)C2)C4)C(=O)N1 (stereo partly drawn) [Compound B65, 2-(2,6-dioxopiperidin-3-yl)-6-(1-((1-(4-((1R,2S)-6-hydroxy-2-phenyl-1,2,3,4-tetrahydronaphthalen-1-yl)phenyl)piperidin-4-yl)methyl)azetidin-3-yl)-6,7-dihydropyrrolo[3,4-f]isoindole-1,3(2H,5H)-dione]	> 100
O=C1CCC(N2C(=O)c3cc4c(cc3C2=O)CN(CC2CCN(CC3CCN(c5ccc([C@@H]6c7ccc(O)cc7CC[C@@H]6c6ccccc6)cc5)CC3)CC2)C4)C(=O)N1 (stereo partly drawn) [Compound B273, 2-(2,6-dioxopiperidin-3-yl)-6-((1-((1-(4-((1R,2S)-6-hydroxy-2-phenyl-1,2,3,4-tetrahydronaphthalen-1-yl)phenyl)piperidin-4-yl)methyl)piperidin-4-yl)methyl)-6,7-dihydropyrrolo[3,4-f]isoindole-1,3(2H,5H)-dione]	> 100
2-(2,6-dioxopiperidin-3-yl)-6-((1S,4s)-4-((3-((4-((1R,2S)-6- hydroxy-2-phenyl-1,2,3,4-tetrahydronaphthalen-1- yl)phenyl)amino)azetidin-1-yl)methyl)cyclohexane-1- carbonyl)-6,7-dihydropyrrolo[3,4-f]isoindole-1,3(2H,5H)- dionc [Compound B113]	10 to 100
O=C1CCC(N2C(=O)c3cc4c(cc3C2=O)CN(CC(=O)N2CC3(CCN(c5ccc([C@@H]6c7ccc(O)cc7CC[C@@H]6c6ccccc6)cc5)CC3)C2)CCC4)C(=O)N1 (mixture of isomers) [Compound B261, 2-(2,6-dioxopiperidin-3-yl)-6-(2-(7-(4-((1R,2S)-6-hydroxy-2-phenyl-1,2,3,4-tetrahydronaphthalen-1-yl)phenyl)-2,7-diazaspiro[3.5]nonan-2-yl)-2-oxoethyl)-6,7,8,9-tetrahydroazepino[3,4-f]isoindole-1,3(2H,5H)-dione]	> 100
O=C1CCC(N2C(=O)c3cc4c(cc3C2=O)CN(C2CN(C(=O)C3CCN(c5ccc([C@@H]6c7ccc(O)cc7CC[C@@H]6c6ccccc6)cc5)CC3)C2)C4)C(=O)N1 (mixture of isomers) [Compound B9, 2-(2,6-dioxopiperidin-3-yl)-6-(1-(1-(4-((1R,2S)-6-hydroxy-2-phenyl-1,2,3,4-tetrahydronaphthalen-1-yl)phenyl)piperidine-4-carbonyl)azetidin-3-yl)-6,7-dihydropyrrolo[3,4-f]isoindole-1,3(2H,5H)-dione]	10 to 100
O=C1CCC(N2C(=O)c3cc4c(cc3C2=O)CN([C@H]2CC[C@H](C(=O)N3CC(Oc5ccc([C@@H]6c7ccc(O)cc7CC[C@@H]6c6ccccc6)cc5)C3)CC2)C4)C(=O)N1 (stereo partly drawn) [Compound B122, 2-(2,6-dioxopiperidin-3-yl)-6-((1S,4r)-4-(3-(4-((1R,2S)-6-hydroxy-2-phenyl-1,2,3,4-tctrahydronaphthalcn-1-yl)phenoxy)azetidine-1-carbonyl)cyclohexyl)-6,7-dihydropyrrolo[3,4-f]isoindole-1,3(2H,5H)-dione]	10 to 100

Other lines, results leading:

DC50 [nM]	Compound
10 to 100	CN(C1CCC(C(=O)N2Cc3cc4c(cc3C2)C(=O)N(C2CCC(=O)NC2=O)C4=O)CC1)C1CCN(c2ccc([C@@H]3c4ccc(O)cc4CC[C@@H]3c3ccccc3)cc2)CC1 (stereo partly drawn) [Compound B200, 2-(2,6-dioxopiperidin-3-yl)-6-(4-((1-(4-((1R,2S)-6-hydroxy-2-phenyl-1,2,3,4-tetrahydronaphthalen-1-yl)phenyl)piperidin-4-yl)(methyl)amino)cyclohexane-1-carbonyl)-6,7-dihydropyrrolo[3,4-f]isoindole-1,3(2H,5H)-dione]
> 100	O=C1CCC(N2C(=O)c3cc4c(cc3C2=O)CN(C(=O)CN2CCC[C@H](Oc3ccc([C@@H]5c6ccc(O)cc6CC[C@@H]5c5ccc(F)cc5)cc3)C2)C4)C(=O)N1 (stereo partly drawn) [Compound B38, 2-(2,6-dioxopiperidin-3-yl)-6-(2-((S)-3-(4-((1R,2S)-2-(4-fluorophenyl)-6-hydroxy-1,2,3,4-tetrahydronaphthalen-1-yl)phenoxy)piperidin-1-yl)acetyl)-6,7-dihydropyrrolo[3,4-f]isoindole-1,3(2H,5H)-dione]
> 100	O=C1CCC(N2C(=O)c3cc4c(cc3C2=O)CN(C2CCC(C(=O)N3CCN(c5ccc([C@@H]6c7ccc(O)cc7CC[C@@H]6c6ccccc6)cc5)CC3)CC2)C4)C(=O)N1 (stereo partly drawn) [Compound B77, 2-(2,6-dioxopiperidin-3-yl)-6-(4-(4-(4-((1R,2S)-6-hydroxy-2-phenyl-1,2,3,4-tetrahydronaphthalen-1-yl)phenyl)piperazine-1-carbonyl)cyclohexyl)-6,7-dihydropyrrolo[3,4-f]isoindole-1,3(2H,5H)-dione]
10 to 100	O=C1CCC(N2C(=O)c3cc4c(cc3C2=O)CN(CC(=O)N2CC3(CCN(c5ccc([C@@H]6c7ccc(O)cc7CC[C@@H]6c6ccccc6)cc5)CC3)C2)CC4)C(=O)N1 (mixture of isomers) [Compound B192, 2-(2,6-dioxopiperidin-3-yl)-6-(2-(7-(4-((1R,2S)-6-hydroxy-2-phenyl-1,2,3,4-tetrahydronaphthalen-1-yl)phenyl)-2,7-diazaspiro[3.5]nonan-2-yl)-2-oxoethyl)-5,6,7,8-tetrahydro-1H-pyrrolo[3,4-g]isoquinoline-1,3(2H)-dione]
10 to 100	O=C1CCC(N2C(=O)c3cc4c(cc3C2=O)CN(C(=O)[C@H]2CC[C@@H](N3CC(Oc5ccc([C@@H]6c7ccc(O)cc7CC[C@@H]6c6ccccc6)cc5)C3)CC2)C4)C(=O)N1 (stereo partly drawn) [Compound B126, 2-(2,6-dioxopiperidin-3-yl)-6-((1R,4s)-4-(3-(4-((1R,2S)-6-hydroxy-2-phenyl-1,2,3,4-tetrahydronaphthalen-1-yl)phenoxy)azetidin-1-yl)cyclohexane-1-carbonyl)-6,7-dihydropyrrolo[3,4-f]isoindole-1,3(2H,5H)-dione]
10 to 100	O=C1CCC(N2C(=O)c3cc4c(cc3C2=O)CN(CCN2CCC3(CC2)CN(c2ccc([C@@H]5c6ccc(O)cc6CC[C@@H]5c5ccccc5)cc2)C3)C4)C(=O)N1 (mixture of isomers) [Compound B196, 2-(2,6-dioxopiperidin-3-yl)-6-(2-(2-(4-((1R,2S)-6-hydroxy-2-phenyl-1,2,3,4-tetrahydronaphthalen-1-yl)phenyl)-2,7-diazaspiro[3.5]nonan-7-yl)ethyl)-6,7-dihydropyrrolo[3,4-f]isoindole-1,3(2H,5H)-dione]
> 100	O=C1CCC(N2C(=O)c3cc4c(cc3C2=O)CC2(C4)CN(C(=O)C3CCN(c4ccc([C@@H]5c6ccc(O)cc6CC[C@@H]5c5ccccc5)cc4)CC3)C2)C(=O)N1 (stereo partly drawn) [Compound B297, 2′-(2,6-dioxopiperidin-3-yl)-1-(1-(4-((1R,2S)-6-hydroxy-2-phenyl-1,2,3,4-tetrahydronaphthalen-1-yl)phenyl)piperidine-4-carbonyl)-5′,7′-dihydro-1′H-spiro[azetidine-3,6′-cyclopenta[f]isoindole]-1′,3′(2'H)-dione]
> 100	O=C1CCC(N2C(=O)c3cc4c(cc3C2=O)CN(C[C@H]2CC[C@@H](N3CC(Nc5ccc([C@@H]6c7ccc(O)cc7CC[C@@H]6c6ccccc6)cc5)C3)CC2)C4)C(=O)N1 (stereo partly drawn) [Compound B119, 2-(2,6-dioxopiperidin-3-yl)-6-(((1S,4s)-4-(3-((4-((1R,2S)-6-hydroxy-2-phenyl-1,2,3,4-tetrahydronaphthalen-1-yl)phenyl)amino)azetidin-1-yl)cyclohexyl)methyl)-6,7-dihydropyrrolo[3,4-f]isoindole-1,3(2H,5H)-dione]
> 100	O=C1CCC(N2C(=O)c3cc4c(cc3C2=O)CN(CC(=O)N2CCC3(CC2)CCN(c2ccc([C@H]5c6ccc(O)cc6CC[C@H]5c5ccccc5)cn2)CC3)C4)C(=O)N1 (mixture of isomers) [Compound B81, 2-(2,6-dioxopiperidin-3-yl)-6-(2-(9-(5-((1R,2R)-6-hydroxy-2-phenyl-1,2,3,4-tetrahydronaphthalen-1-yl)pyridin-2-yl)-3,9-diazaspiro[5.5]undecan-3-yl)-2-oxoethyl)-6,7-dihydropyrrolo[3,4-f]isoindole-1,3(2H,5H)-dione]
> 100	O=C1CCC(N2C(=O)c3cc4c(cc3C2=O)CN(CC2CCC3(CC2)CCN(C(=O)c2ccc([C@@H]5c6ccc(O)cc6CC[C@@H]5c5ccccc5)cc2)CC3)C4)C(=O)N1 (stereo partly drawn) [Compound B287, 2-(2,6-dioxopiperidin-3-yl)-6-((3-(4-((1R,2S)-6-hydroxy-2-phenyl-1,2,3,4-tetrahydronaphthalen-1-yl)benzoyl)-3-azaspiro[5.5]undecan-9-yl)methyl)-6,7-dihydropyrrolo[3,4-f]isoindole-1,3(2H,5H)-dione]
> 100	O=C1CCC(N2C(=O)c3cc4c(cc3C2=O)CN(CC(=O)N2CCC(Oc3ccc([C@@H]5c6ccc(O)cc6CC[C@@H]5c5ccccc5)cc3)CC2)C4)C(=O)N1 (stereo partly drawn) [Compound B60, 2-(2,6-dioxopiperidin-3-yl)-6-(2-(4-(4-((1R,2S)-6-hydroxy-2-phenyl-1,2,3,4-tetrahydronaphthalen-1-yl)phenoxy)piperidin-1-yl)-2-oxoethyl)-6,7-dihydropyrrolo[3,4-f]isoindole-1,3(2H,5H)-dione]
